Laboratory results as given in patent US9890142B2, “PDE4 inhibitor” (Meiji Seika Pharma Co., Ltd., priority 2013, dated 2018).

System: PDE4
Experiment: Evaluation of PDE4 inhibition (scintillation proximity assay)
Format: biochemical
Details: inhibition rate relative to control, test compound at 1 μM
Experimental: Test Example 1 Evaluation of PDE4 Inhibition
The PDE4 inhibitory activity was measured by using scintillation proximity assay (SPA) as follows: one in which a sample compound dissolved in dimethyl sulfoxide was diluted 10-fold with a buffer solution for reaction containing 50 mM Tris-HCl, pH 7.5, 8.3 mM MgCl2, 1.7 mM EDTA and 0.3 mg/mL bovine serum albumin (BSA) was added at 10 μL/well to a 96-well assay plate. Further, PDE4 diluted 750-fold with a buffer solution for reaction was added at 50 μL/well, then [2,8-^3H]-Adenosine-3′,5′-cyclic phosphate triethylammonium salt diluted 1000-fold with a buffer solution for reaction was added at 40 μL/well, and the plate was left standing at room temperature for 120 minutes. Thereafter, a suspension of RNA binding YSi-SPA Beads containing 200 mM ZnSO4 was added at 50 μL/well, and the plate was left standing at room temperature for 15 minutes to adsorb the enzyme reaction product onto the Beads. Thereafter, the radioactivity was measured with a liquid scintillation counter for 96-well plates. When one supplemented with only a buffer solution for reaction without adding the enzyme preparation was used as a blank and one supplemented with the enzyme preparation but supplemented with only dimethyl sulfoxide instead of the sample solution was used as a control, the inhibition rate of the test compound relative to the control was calculated according to the following calculation expression: Inhibition rate (%)={1−(Numeric value from the addition of each sample−Blank value)/(Control value−Blank value)}×100

SMILES	PDE4 inhibitory activity (1 μM (%)) [%]
C[C@H]1CNCCN1c1nc2cc(Cl)cc(-c3ncco3)c2o1 [Example 34, (S)-5-Chloro-2-(2-methylpiperazin-1-yl)-7-(oxazol-2-yl)benzoxazole]	89
C[C@H]1CNCCN1c1nc2cc(Cl)cc(-c3nccs3)c2o1 [Example 35, (S)-5-Chloro-2-(2-methylpiperazin-1-yl)-7-(thiazol-2-yl)benzoxazole]	96
C[C@H]1CNCCN1c1nc2cc(Cl)cc(-n3ccnc3)c2o1 [Example 36, (S)-5-Chloro-7-(1H-imidazol-1-yl)-2-(2-methylpiperazin-1-yl)benzoxazole]	39
C[C@H]1CNCCN1c1nc2cc(Cl)cc(-c3cscn3)c2o1 [Example 37, (S)-5-Chloro-2-(2-methylpiperazin-1-yl)-7-(thiazol-4-yl)benzoxazole]	98
C[C@H]1CNCCN1c1nc2cc(Cl)cc(-c3cncs3)c2o1 [Example 38, (S)-5-Chloro-2-(2-methylpiperazin-1-yl)-7-(thiazol-5-yl)benzoxazole]	68
Cc1ccc(-c2cc(Cl)cc3nc(N4CCNC[C@@H]4C)oc23)o1 [Example 39, (S)-5-Chloro-7-(5-methylfuran-2-yl)-2-(2-methylpiperazin-1-yl)benzoxazole]	42
Cc1cnn(-c2cc(Cl)cc3nc(N4CCNC[C@@H]4C)oc23)c1 [Example 40, (S)-5-Chloro-7-(4-methyl-1H-pyrazol-1-yl)-2-(2-methylpiperazin-1-yl)benzoxazole]	68
C[C@H]1CNCCN1c1nc2cc(Cl)cc(-c3ccccn3)c2o1 [Example 41, (S)-5-Chloro-2-(2-methylpiperazin-1-yl)-7-(pyridin-2-yl)benzoxazole]	93
C[C@H]1CNCCN1c1nc2cc(Cl)cc(-c3cccnc3)c2o1 [Example 42, (S)-5-Chloro-2-(2-methylpiperazin-1-yl)-7-(pyridin-3-yl)benzoxazole]	66
C[C@H]1CNCCN1c1nc2cc(Cl)cc(-c3ccncc3)c2o1 [Example 43, (S)-5-Chloro-2-(2-methylpiperazin-1-yl)-7-(pyridin-4-yl)benzoxazole]	61
C[C@H]1CNCCN1c1nc2cc(Cl)cc(C3CCCCC3)c2o1 [Example 44, (S)-5-Chloro-7-cyclohexyl-2-(2-methylpiperazin-1-yl)benzoxazole]	64
C[C@H]1CNCCN1c1nc2cc(Cl)cc(-n3nccn3)c2o1 [Example 45, (S)-5-Chloro-2-(2-methylpiperazin-1-yl)-7-(2H-1,2,3-triazol-2-yl)benzoxazole]	87
C[C@H]1CNCCN1c1nc2cc(Cl)cc(-n3cncn3)c2o1 [Example 46, (S)-5-Chloro-2-(2-methylpiperazin-1-yl)-7-(1H-1,2,4-triazol-1-yl)benzoxazole]	29
CC(C)Cc1cc(Cl)cc2nc(N3CCNC[C@@H]3C)oc12 [Example 47, (S)-5-Chloro-7-isobutyl-2-(2-methylpiperazin-1-yl)benzoxazole]	35
C[C@H]1CNCCN1c1nc2cc(Cl)cc(-c3ccccc3CO)c2o1 [Example 48, (S)-5-Chloro-2-(2-methylpiperazin-1-yl)-7-(2-hydroxymethylphenyl)benzoxazole]	53
C[C@H]1CNCCN1c1nc2cc(Cl)cc(-c3nccn3C)c2o1 [Example 49, (S)-5-Chloro-7-(1-methyl-1H-imidazol-2-yl)-2-(2-methylpiperazin-1-yl)-benzoxazole]	17

SMILES	PDE4 inhibitory activity (1 μM (%)) [%]
C[C@H]1CNCCN1c1nc2cc(Cl)cc(-c3ncc[nH]3)c2o1 [Example 50, (S)-5-Chloro-7-(1H-imidazol-2-yl)-2-(2-methylpiperazin-1-yl)benzoxazole]	62
C[C@H]1CNCCN1c1nc2cc(Cl)cc(CC3CCCCC3)c2o1 [Example 51, (S)-5-Chloro-7-(cyclohexylmethyl)-2-(2-methylpiperazin-1-yl)-benzoxazole]	12
C[C@H]1CNCCN1c1nc2cc(Cl)cc(OC3CCCCC3)c2o1 [Example 52, (S)-5-Chloro-7-(cyclohexyloxy)-2-(2-methylpiperazin-1-yl)benzoxazole]	57
C[C@H]1CNCCN1c1nc2cc(Cl)cc(OCC3CC3)c2o1 [Example 53, (S)-5-Chloro-7-(cyclopropylmethoxy)-2-(2-methylpiperazin-1-yl)benzoxazole]	50
C[C@H]1CNCCN1c1nc2cc(Cl)cc(-c3ccsn3)c2o1 [Example 54, (S)-5-Chloro-7-(isothiazole-3-yl)-2-(2-methylpiperazin-1-yl)benzoxazole]	92
C[C@H]1CNCCN1c1nc2cc(Cl)cc(-c3ncc(CO)s3)c2o1 [Example 55, (S)-5-Chloro-7-(5-hydroxymethylthiazol-2-yl)-2-(2-methylpiperazin-1-yl)benzoxazole]	80
C[C@H]1CNCCN1c1nc2cc(Cl)cc(-c3ncccn3)c2o1 [Example 56, (S)-5-Chloro-2-(2-methylpiperazin-1-yl)-7-(pyrimidin-2-yl)benzoxazole]	87
C[C@H]1CNCCN1c1nc2cc(Cl)cc(-c3ccc(Cl)s3)c2o1 [Example 57, (S)-5-Chloro-7-(5-chlorothiophen-2-yl)-2-(2-methylpiperazin-1-yl)benzoxazole]	54
C[C@H]1CNCCN1c1nc2cc(Cl)cc(-c3ccc(Cl)cn3)c2o1 [Example 58, (S)-5-Chloro-7-(5-chloropyridin-2-yl)-2-(2-methylpiperazin-1-yl)benzoxazole]	77
C[C@H]1CNCCN1c1nc2cc(Cl)cc(-c3cc(Cl)ccn3)c2o1 [Example 59, (S)-5-Chloro-7-(4-chloropyridin-2-yl)-2-(2-methylpiperazin-1-yl)benzoxazole]	71
C[C@H]1CNCCN1c1nc2cc(Cl)cc(-c3cccc(F)n3)c2o1 [Example 60, (S)-5-Chloro-7-(6-fluoropyridin-2-yl)-2-(2-methylpiperazin-1-yl)benzoxazole]	63
C[C@H]1CNCCN1c1nc2cc(Cl)cc(-c3ncccc3F)c2o1 [Example 61, (S)-5-Chloro-7-(3-fluoropyridin-2-yl)-2-(2-methylpiperazin-1-yl)benzoxazole]	81
C[C@H]1CNCCN1c1nc2cc(Cl)cc(-c3ncc(C#N)s3)c2o1 [Example 62, (S)-5-Chloro-7-(5-cyanothiazol-2-yl)-2-(2-methylpiperazin-1-yl)benzoxazole]	65
Cc1cnc(-c2cc(Cl)cc3nc(N4CCNC[C@@H]4C)oc23)s1 [Example 63, (S)-5-Chloro-2-(2-methylpiperazin-1-yl)-7-(5-methylthiazol-2-yl)benzoxazole]	87
C[C@H]1CNCCN1c1nc2cc(Cl)cc(-c3ccsc3Cl)c2o1 [Example 64, (S)-5-Chloro-7-(2-chlorothiophen-3-yl)-2-(2-methylpiperazin-1-yl)benzoxazole]	73
